From ChEMBL document CHEMBL3272001, “Nuclear analogues of beta-lactam antibiotics. 4. Total synthesis of bisnorisopenicillins from beta-lactam precursors” (1978)
Converted amounts (≈) assume the structure as drawn.

Columns and labels:
Format in all cases: functional
Escherichia coli [1] = assay: Antibacterial activity against Escherichia coli HH 33779 assessed as […]
Escherichia coli [2] = assay: Antibacterial activity against Escherichia coli SK&F 12140 assessed as […]
Morganella morganii = assay: Antibacterial activity against Proteus morganii 179 assessed as […]
Klebsiella pneumoniae = assay: Antibacterial activity against Klebsiella pneumoniae SK&F 1200 assessed as […]
Klebsiella aerogenes = assay: Antibacterial activity against Enterobacter aerogenes ATCC 13048 assessed as […]
Serratia marcescens = assay: Antibacterial activity against Serratia marcescens ATCC 13880 assessed as […]
Enterococcus faecalis = assay: Antibacterial activity against Streptococcus faecalis HH 34358 assessed as […]
Staphylococcus aureus = assay: Antibacterial activity against Staphylococcus aureus SK&F 23390 assessed as […]

- MIC (Escherichia coli [1]): 7 µM (≈ 2.78 µg/mL)
- MIC (Escherichia coli [2]): 7 µM (≈ 2.78 µg/mL)
- MIC (Morganella morganii): > 453 µM
- MIC (Klebsiella pneumoniae): 3.6 µM (≈ 1.43 µg/mL)
- MIC (Klebsiella aerogenes): 14 µM (≈ 5.55 µg/mL)
- MIC (Serratia marcescens): > 453 µM
- MIC (Enterococcus faecalis): 14 µM (≈ 5.55 µg/mL)
- MIC (Staphylococcus aureus): 0.2 µM (≈ 0.0793 µg/mL)
Compound: CC(=O)OCC1=C(C(=O)O)N2C(=O)[C@@H](NC(=O)Cc3cccs3)[C@H]2SC1 [CEPHALOTHIN]
